This passage reports TGI results from PubChem BioAssay (NCI).

SMILES strings stand for the structures.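 Step 1: Grow cells in 96-well plates. Step 2: Expose to compound for 48 hours at 5 concentrations. Step 3: Interpolate endpoints linearly; if unreached, use highest concentration. TGI denotes the concentration required for complete inhibition of growth.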 Bounds are passed on as bounds.

What all share (experiment): inhibition of tumour cell growth, NCI panel, 48 h
For test [1], the system named is HCC-2998 colon.
The test system of test [2] is IGROV1 ovarian.
Test [3] concerns EKVX NSCLC.
Test [4] has as its system T-47D breast.
Test [5] concerns SNB-75 CNS.
Test [6] concerns MCF7 breast.
In test [7] the test system is NCI-H522 lung.
Test [8] concerns ACHN renal.
Test [9] relates to MDA-N.
Test [10] relates to HCT-15 colon.
Test [11] concerns OVCAR-4 ovarian.

For `CCOC(=O)c1nc2ccc(C(F)(F)F)cc2nc1NCc1cc(OC)c(OC)c(OC)c1`, the TGI is over 100 µM in test [1]; over 100 µM in test [2]; over 100 µM in test [3]; over 100 µM in test [4]; 90.6 µM in test [5]; over 100 µM in [6]. The TGI in [7] was over 100 µM; in [8], over 100 µM; in test [9], 76 µM; in test [10], over 100 µM.

For the compound `CCOc1cn(C2CC(O)C(CO)O2)c(=O)[nH]c1=O` (centres undefined), the TGI in [1], in test [2], in [3], in test [4], in [5] and in test [6] was over 100 µM throughout. Further, the TGI in test [8], in [9], in test [11] and in test [10] was over 100 µM throughout.

With `COC1=C(OC)C(=O)C(Cc2c(C)nc3sc(C)cn23)=C(C)C1=O`, the TGI in test [1] was 92.9 µM; in test [2] it was 32.2 µM; in test [3], 35.1 µM; in test [4], over 100 µM; in [6], 59.9 µM; in test [7], 70.6 µM. Besides, the TGI in [8] was determined as 30 µM; in test [9], 32.4 µM; in [11], 23.1 µM; in [10] it was 96.4 µM.

`Cc1cc(S(=O)(=O)N=C2N(Cc3ccccc3)CCN2Cc2ccccc2)c(S)cc1Cl`: the TGI in test [1], in [2], in test [3], in [4], in [5] and in test [6] was over 100 µM in each case. The TGI in [7], in test [9], in test [11] and in [10] was over 100 µM throughout.

Take `CCN(CC)CCNc1nc2ccc([N+](=O)[O-])cc2[n+]([O-])n1`: the TGI in [1] was 44.8 µM; in [2], 38.3 µM; in [4] it was 40.6 µM; in test [5], over 100 µM; in [6], 9.86 µM; in test [7] it was over 100 µM. Besides, the TGI in [8] was over 100 µM; in [9], 29.5 µM; in test [11], 26.5 µM; in test [10] it was 39.8 µM.

For `C[C@]12CCC(=O)O[C@H]1CCCCO2`, the TGI in test [1], in [2], in test [3], in [4], in [5] and in test [6] was over 100 µM each time. Besides, the TGI in test [7], in test [9] and in [10] was over 100 µM in each case.

As for `Cc1ccc(SCC(CF)OC(C)n2cnc3c(=O)[nH]c(N)nc32)cc1` (centres undefined), the TGI in [1], in [2], in test [4], in [5], in [6] and in test [7] was over 100 µM in each case. For the same compound, the TGI in test [8], in test [9], in test [11] and in test [10] was over 100 µM in each case.

For the compound `Cn1cc(NC(=O)c2cc(NC(=O)CN=C(N)N)cn2C)cc1C(=O)NCCC(=N)N`, the TGI in [1], in test [2], in [3], in [4], in test [6] and in test [7] was over 100 µM in each case. Besides, the TGI in test [8], in test [9], in [11] and in test [10] was over 100 µM each time.

Turning to `OCC(O)COCn1nncc1Cn1ncc2c(SCc3ccccc3)ncnc21` (centres undefined), the TGI in test [1] was over 100 µM; in [2] it was over 100 µM; in [3], over 100 µM; in test [4], over 100 µM; in test [6], over 100 µM; in test [7], 33.1 µM. The TGI in [8], in [9], in test [11] and in [10] was over 100 µM each time.

In the case of `O=C(O)Cc1cccc2c(=O)c3ccccc3oc12`, the TGI in test [1] is 46 µM; in test [2], over 100 µM; in [3] it was over 100 µM; in [4], 61.7 µM; in [6] it was over 100 µM; in test [7] it was over 100 µM. The TGI in test [8], in test [9], in test [11] and in [10] was over 100 µM in each case.

With `COc1cc(C(=O)N(Cc2cccnc2)C(=S)N(Cc2cccnc2)C(=O)c2cc(OC)c(OC)c(OC)c2)cc(OC)c1OC`, the TGI in [1] is 62.2 µM; in test [3], over 100 µM; in test [4] it was over 100 µM; in test [5] it was 56.7 µM; in test [6] it was 34.9 µM; in test [7], 97.5 µM. The TGI in [8] was over 100 µM; in test [9], over 100 µM; in test [11], 43.5 µM; in test [10], over 100 µM.

Regarding `CC(=O)OCC12C(=O)C[C@@H](C)C3(CC(c4ccoc4)OC3=O)C1CCC(OC(C)=O)C21CO1` (some centres undefined), the TGI in test [1], in test [2], in [4], in test [5], in test [6] and in test [7] was over 100 µM throughout. Further, the TGI in [8], in [9], in test [11] and in [10] was over 100 µM throughout.

As to `O=C1CC(=Nc2ccc(Cl)cc2)C(c2ccccc2)N1c1ccccc1` (centres undefined), the TGI in test [1] is over 100 µM; in test [2], over 100 µM; in test [3], over 100 µM; in test [4], 6.27 µM; in test [6], over 100 µM; in test [7], 7.22 µM. Further, the TGI was over 100 µM in [8], 10.8 µM in test [9], over 100 µM in test [11] and over 100 µM in test [10].
